From PMC8398714, “Synthesis and Evaluation of Biological Activities of Bis(spiropyrazolone)cyclopropanes: A Potential Application against Leishmaniasis” (Molecules, 2021) come the findings set out here.

Values joined by “and” are separate entries in the source; they are usually repeats but may differ in a detail not shown here. Equal values may be shown once. Read-outs that look alike come from different tables or passages of the source.

The test system of one data set is RKO. Description: MTS cell viability assay on RKO cells. As to conditions: Homo sapiens, 48 h; for inhibition at 100 µM: Dox 1 µM, mean ± SEM, NA = no activity, read-out: Percentage (%) of inhibition, RKO; for IC50: 15-150 µM, mean ± SEM of triplicates. Format: cell-based. For orientation: Tetrazolium dyes change colour on reduction, which living cells bring about.

A short description of data set [1]: Cytotoxicity, MTT assay on RAW 264.7 macrophages. In kind it is cell-based. The conditions noted are these: mouse. The method, then:
Raw 264.7 (ATCC® TIB-71™) was maintained in Dulbecco’s Modified Eagle Medium (DMEM) (Gibco, Invitrogen, Gibco, Carlsbad, CA, USA) supplemented with 10% fetal bovine serum (FBS) (Eurobio, Les Ulis, France) and 100 IU/mL penicillin + 100 μg/mL streptomycin (Gibco), at 37 °C in a 5% CO2 atmosphere. The medium was renewed once a week. The viability was determined using MTT (Thiazolyl Blue Tetrazolium Bromide) dye assay as described before for leishmanicidal activity assessment, with some variations. Here, 5 × 10^4 cells/well in a final volume of 100 µL were deposited into a 96-well plate, in triplicate. Saponin (2.4 mg/mL) and untreated cells were used as positive control and negative control, respectively. A stock solution was prepared in DMSO and immediately diluted in media to obtain different serial concentrations (100–0.01 µM). After 48 h exposure to the compounds, 10 µL/well of MTT (5 mg/mL MTT in PBS) were added, and the plate was incubated at 37 °C for 2 h in the dark. Cells were pelleted by centrifugation at 4400 rpm for 10 min and the media was removed. Then, 100 µL/well of DMSO were added and the absorbance at 570 nm was recorded; a reference wavelength of 630 nm was used for background subtraction.

Data set [2] in a line: DPPH radical scavenging assay. The conditions noted are these: 30 min, 515 nm. The method, then: The stock solution of the compounds was prepared by dissolving 4 in dimethyl sulfoxide (DMSO) to a concentration of 4 mg/mL. The solution was diluted with methanol until a concentration of 400 µg/mL was obtained and then used immediately.
The experimental procedure was adapted from the literature. Briefly, 100 µL of a 0.2 mM methanol solution of DPPH (2, 2-diphenyl-1-picrylhydrazyl) radical were added to 100 µL of methanolic solutions of 4 prepared as serial two-fold dilutions from the stock solution in 96-well microfilter plates. Standards and edaravone were also prepared in the same concentrations. The mixture was incubated in dark at room temperature for 30 min and the absorbance was read at 515 nm on a Cytation 5 (BioTek) spectrophotometer.
The % DPPH scavenging activity was then calculated by using the following formula:(1) % DPPH scavenging = 100 × [(Asample+DPPH−Asample blank)/(ADPPH−Asolvent)]
The antioxidant activity of the compound was expressed as IC50, which is defined as the concentration that could scavenge 50% of the DPPH free radical. The IC50 values were calculated in GraphPad Prism 7.02 (GraphPad Software, Corp.) The results are given as a mean ± standard deviation (SD) of experiments done in triplicate.
A general note: DPPH is a stable violet radical that fades when it is reduced.

Another data set relates to CHO-K1 cells. In kind it is cell-based, hamster. The method, then: Cells were mixed with 150 μL low-melting-point agarose 1% (LMP, Promega, Madison, WI, USA) and added to microscope slides previously prepared with normal-melting-point agarose 1% (NMP, Invitrogen, Carlsbad, CA, USA). A third LMP agarose layer (150 µL) was added. The slides were immersed in a cooled lysing solution (pH 10) with 10% DMSO, 1% Triton X-100 (Sigma Aldrich, Saint Louis, MO, USA), 2.5 M NaCl (Loba Chemie, Mumbai, India), 100 mM EDTA and 10 mM Tris (Invitrogen, Carlsbad, CA, USA) for 12 h at 4 °C. All steps after lysis were performed under darkness or yellow light to prevent additional DNA damage. The slides were immersed for 20 min in an electrophoresis buffer solution (pH 13) with NaOH 300 mM (Fisher Scientific, Waltham, MA, USA) and EDTA 1 mM (Invitrogen, Carlsbad, CA, USA) to allow for DNA unwinding. Electrophoresis was later performed at 25 V and 300 mA for 20 min. Slides were then sprayed with a neutralization buffer (pH 7.5) 0.4 M Tris (Sigma Aldrich, Saint Louis, MO, USA). Ethidium bromide (60 µL) was added to each slide, and a cover glass was placed on the gel. The DNA migration was analyzed using a ZEISS-Axioskop 2 plus microscope with fluorescence (40×) by scoring 100 cells per slide in duplicate. After that, the tail moment parameter was analyzed by a Comet Assay IV software (Perceptive Instruments Ltd., Bury St Edmunds, Suffolk, UK).

Another data set relates to HeLa. In words: MTS cell viability assay on HeLa cells. In kind it is cell-based. The conditions noted are these: Homo sapiens, 48 h, Dox 1 µM, mean ± SEM, NA = no activity, read-out: Percentage (%) of inhibition, HeLa.
For another data set, the system named is A-549. In words: MTS cell viability assay on A-549 cells. Format: cell-based. As to conditions: Homo sapiens, A549; 100 µM, 48 h; Dox 1 µM; mean ± SEM; NA = no activity; read-out: Percentage (%) of inhibition, A-549.
Setting [3] is: RAW cells, 48 h, MTT, read-out: Cytotoxicity CC50.
[4] abbreviates: Statistical Analyses S1, unrounded mean of CC50 in RAW cells, unit inferred, read-out: CC50 original values, x.1 (Mean).

Usually inhibition stands for the percentage by which the read-out fell short of the control. In general, melting point refers to the temperature of the solid-liquid transition. As usually defined, the CC50 is the concentration that lowers cell viability or growth by half. In general, IC50 refers to the midpoint of a concentration-inhibition curve. A low value points to higher potency. For the compound `CC1=NN(c2ccccc2)C(=O)[C@@]12C(c1ccccc1)[C@@]21C(=O)N(c2ccccc2)N=C1C` (relative stereo) [4b, (5R*,6R*)-4,10-Dimethyl-2,8,11-triphenyl-2,3,8,9-tetraazadispiro[4.0.4.1]undeca-3,9-diene-1,7-dione], the melting point was 129 to 130 °C. Also, the inhibition at 100 µM in the data set on RKO worked out at 21.7 ± 2.37%. The CC50 at 48 h in data set [1] (setting [3]) turned out to be 3.4 ± 1.5 µM. Also, the CC50 at 48 h in data set [1] (setting [4]) is 3.44 µM. The compound further returned a concentration for half-maximal inhibition (IC50) in data set [2] of more than 300 µM. For the same compound, in the data set on CHO-K1 cells, the “Genotoxic effect in comet assay versus DMSO control” value is reported as “did not show differences with respect to the control of DMSO”.

Turning to `CC1=NN(c2ccccc2)C(=O)[C@@]12C(c1ccc([N+](=O)[O-])cc1)[C@@]21C(=O)N(c2ccccc2)N=C1C` (relative stereo) [4k, (5R*,6R*)-11-(4-Nitrophenyl)-4,10-dimethyl-2,8-diphenyl-2,3,8,9-tetraazadispiro[4.0.4.1]undeca-3,9-diene-1,7-dione], the melting point was 145.3 to 152.9 °C (dec.). Also, in the data set on RKO, the inhibition at 100 µM was 67.6 ± 0.77% and the IC50 turned out to be 84 ± 9.46 µM. The inhibition at 100 µM with HeLa came to 47.2 ± 1.36%. For the same compound, the inhibition at 100 µM in the data set on A-549 was 26.7 ± 3.03%. Besides, in data set [1] (setting [3]), the CC50 at 48 h came out at 3.3 ± 1 µM. The CC50 at 48 h in data set [1] (setting [4]) stood at 3.31 µM. Further, in data set [2], the concentration for half-maximal inhibition (IC50) is 234 µM and < 300 µM. For the same compound, the “Genotoxic effect in comet assay versus DMSO control” value in the data set with CHO-K1 cells is given as “most significant”.

`CC1=NN(c2ccccc2)C(=O)[C@@]12C(c1cccc([N+](=O)[O-])c1)[C@@]21C(=O)N(c2ccccc2)N=C1C` (relative stereo) [4d, (5R*,6R*)-11-(3-Nitrophenyl)-4,10-dimethyl-2,8-diphenyl-2,3,8,9-tetraazadispiro[4.0.4.1]undeca-3,9-diene-1,7-dione] showed a melting point of 183.9 to 185 °C. Moreover, in the data set with RKO, the inhibition at 100 µM came out at 68.9 ± 1.72% and the IC50 was found to be 94 ± 4.09 µM. Also, in the data set on HeLa, the inhibition at 100 µM came out at 48.6 ± 4.91%. Also, the inhibition at 100 µM with A-549 is 13.6 ± 0.74%. Also, the 50% cytotoxic concentration (CC50) at 48 h in data set [1] (setting [3]) came to 3.9 ± 1.1 µM. Also, the CC50 at 48 h in data set [1] (setting [4]) amounted to 3.92 µM. Further, the half-maximal inhibitory concentration (IC50) in data set [2] was more than 300 µM. Moreover, the “Genotoxic effect in comet assay versus DMSO control” value in the data set with CHO-K1 cells is reported as “most significant”.

Compound `CC1=NN(c2ccccc2)C(=O)[C@@]12C(c1cccc(F)c1)[C@@]21C(=O)N(c2ccccc2)N=C1C` (relative stereo) [4t, (5R*,6R*)-11-(3-Fluorophenyl)-4,10-dimethyl-2,8-diphenyl-2,3,8,9-tetraazadispiro[4.0.4.1]undeca-3,9-diene-1,7-dione] showed a melting point of 152.1 to 153 °C. In addition, the inhibition at 100 µM in the data set with RKO is 47.6 ± 0.95%. The inhibition at 100 µM in the data set with HeLa is 5.06 ± 2.43%. Moreover, the inhibition at 100 µM in the data set with A-549 stood at 3.43 ± 2.42%. For the same compound, the CC50 at 48 h in data set [1] (setting [3]) was determined as 2.7 ± 0.7 µM. In addition, in data set [1] (setting [4]), the CC50 at 48 h came to 2.75 µM. The concentration for half-maximal inhibition (IC50) in data set [2] is more than 300 µM. In the data set with CHO-K1 cells, the “Genotoxic effect in comet assay versus DMSO control” value is “did not show differences with respect to the control of DMSO”.

The compound `CSc1ccc(C2[C@]3(C(=O)N(c4ccccc4)N=C3C)[C@@]23C(=O)N(c2ccccc2)N=C3C)cc1` (relative stereo) [4u, (5R*,6R*)-11-(4-Thiomethylphenyl)-4,10-dimethyl-2,8-diphenyl-2,3,8,9-tetraazadispiro[4.0.4.1]undeca-3,9-diene-1,7-dione] gave a melting point of 154.4 to 157.3 °C. Also, in the data set with RKO, the inhibition at 100 µM is 41 ± 1.49%. Moreover, the inhibition at 100 µM in the data set on HeLa is 34.7 ± 2.29%. Besides, the inhibition at 100 µM in the data set with A-549 was determined as 3.64 ± 1.81%. The CC50 at 48 h in data set [1] (setting [3]) turned out to be 9.3 ± 3.4 µM. Moreover, the CC50 at 48 h in data set [1] (setting [4]) amounted to 9.3 µM. This compound yielded an IC50 in data set [2] of more than 300 µM. Also, the “Genotoxic effect in comet assay versus DMSO control” value in the data set with CHO-K1 cells is given as “did not show differences with respect to the control of DMSO”.

The compound `COC(=O)c1ccc(C2[C@@]3(C(=O)N(c4ccccc4)N=C3C)[C@]23C(=O)N(c2ccccc2)N=C3C)cc1` (relative stereo) [4q, (5R*,6R*)-Methyl-4[4,10-dimethyl-2,8-diphenyl-2,3,8,9-tetraazadispiro[4.0.4.1]undeca-3,9-diene-1,7-dione-11-yl]benzoate] yielded a melting point of 162.5 to 163.9 °C. In addition, in the data set on RKO, the inhibition at 100 µM came out at 62.9 ± 1.53% and the IC50 amounted to 102 ± 7.8 µM. In the data set with HeLa, the inhibition at 100 µM is 31.7 ± 1.52%. Moreover, in the data set with A-549, the inhibition at 100 µM turned out to be 13 ± 1.99%. In addition, the 50% cytotoxic concentration (CC50) at 48 h in data set [1] (setting [3]) was found to be 4 ± 0.8 µM. For the same compound, the CC50 at 48 h in data set [1] (setting [4]) stood at 4.01 µM. In addition, in data set [2], the IC50 is more than 300 µM. The “Genotoxic effect in comet assay versus DMSO control” value with CHO-K1 cells is “did not show differences with respect to the control of DMSO”.
